Laboratory results: US20170226507A1, “COORDINATE CONTROL OF PATHOGENIC SIGNALING BY THE MIR-130/301 FAMILY IN PULMONARY HYPERTENSION AND FIBROPROLIFERATIVE DISEASES” (The Brigham and Women's Hospital, Inc., priority 2014, published 2017)

What was measured:
Format in all cases: cell-based, human
PAECs [1] = test: Caspase 3/7 assay, PAECs
Description: Caspase 3,7 activity was quantified using the Caspase-Glo 3/7 Assay (Promega), according to manufacturer's instructions. Briefly, cells were plated in triplicate in 96-well plates and transfected with the appropriate oligonucleotide. Forty-eight hours after transfection, cells were cultured in the presence or absence of serum for twenty-four hours. Cells were then incubated for 1 h with the caspase substrates, and luminescence was quantified.

PAECs [2] = test: Proliferation of PAECs (cell counting, BrdU incorporation, PCNA)
Source text: Pre-miRNA oligonucleotides (pre-miR-130a, pre-miR-204, pre-miR-424, and pre-miR-503 and negative control pre-miR-NC1 and premiR-NC2, Life Technologies), anti-miRNAs oligonucleotides (anti-miR-130a and anti-miR-NC, ThermoScientific), tiny LNA oligonucleotides (tiny-130: 5′-[…]-3′ (SEQ ID NO: 3), and tiny-NC 5′-[…]-3′ (SEQ ID NO: 51), Exiqon), siRNAs (PPARγ and scrambled control, Santa Cruz Biotechnology; HIF-1α, HIF-2α, and scrambled control, Life Technologies) were commercially purchased. PAECs and PASMCs were plated and transfected 24 h later at 70-80% confluence using pre-miRNA (5 nM), anti-miRNA (20 nM), tiny-LNA (20 nM) or siRNA (25 nM) with Lipofectamine 2000 reagent (Life Technologies), according to the manufacturers' instructions.
Exponentially growing cells were transfected, collected at the indicated times and counted.
Cells were lysed in RIPA buffer (Santa Cruz Biotechnology) and the protein concentration determined using a Bradford assay (Biorad). Protein lysate ([…]) were resolved by SDS-PAGE and transferred onto a PVDF membrane (Biorad). Membranes were blocked in 5% non-fat milk in TN buffer (50 mM Tris-HCl pH 7.4, 150 mM NaCl) and incubated in the presence of the primary and then secondary antibodies. After washing in TN buffer containing 0.1% Tween, immunoreactive bands were visualized with the ECL system (Amersham Biosciences). […] Primary antibodies for STAT3 (#9139) and P-STAT3 (Tyr-705; #9145) were purchased from Cell Signaling. Primary antibodies against actin (ab 3280), α-smooth-muscle-actin (ab 32575), CD31 (ab28364), and PCNA (ab 29) were obtained from Abcam. Appropriate secondary antibodies (anti-rabbit and anti-mouse) coupled to HRP were used (Santa Cruz Biotechnology).

PAAFs = PAAFs in soft or stiff matrix: fibrotic gene expression, immunoblot, collagen secretion; settings: PAAFs
Description: Cell Culture and Reagents: Primary human pulmonary arterial adventitial fibroblast cells (PAAFs) were purchased and propagated in FGM cell culture media (Lonza). Experiments were performed at passages 3 to 6. Primary human pulmonary fibroblast cells (PFs) were purchased and propagated in FGM cell culture media (Lonza). Primary human pulmonary arterial endothelial cells (PAECs) were purchased and propagated in EGM-2 cell culture media (Lonza). Experiments were performed at passages 3 to 6. Primary human pulmonary arterial smooth muscle cells (PASMCs) were purchased and propagated in SmGM-2 cell culture media (Lonza). Experiments were performed at passages 3 to 9. HEK293T cells (American Type Culture Collection) were used and cultivated in DMEM containing 10% fetal bovine serum (FBS). Cells were propagated in coated collagen plastic (50 ug/mL) at 37° C. in a humidified 5% CO2 atmosphere. Collagen-coated hydrogel were purchased.
3D cell culture: Protocol was adapted from previously published protocol (Aragona M et al, 2013 Cell). Cells were embedded in a mixture of Growth Factor Reduced Matrigel (BD Biosciences) and Collagen-I (BD Biosciencres). Collagen-I solution was neutralized on ice with 0.1M NaOH in PBS and adjusted with 0.1N HCl to bring the pH of the solution to 7.5. The Collagen-I solution was then mixed on ice with Matrigel to obtain a final concentration of 1.2 mg/ml (soft matrices) or 3 mg/ml (stiff matrices). Cells were trypsinized, counted, resuspended in growth medium; then, 1 volume of cells was mixed with 1 volume of the ECM mix. 6-well plated were precoated with 1 ml of cellfree 50% medium/50% ECM, and left in the incubator until gelled; then, cells were seeded in drop on top of the pregelled ECM. After gelling, wells were supplemented with normal growth medium, which was changed every 2 days during the experiments.
Oligonucleotides and Transfection: Pre-miRNA oligonucleotides (pre-miR-130a, negative control pre-miR-NC1 and premiR-NC2) and custom designed tiny LNA oligonucleotides (tiny-130: 5′-[…]-3′ (SEQ ID NO: 52), and tiny-NC 5′-[…]-3′ (SEQ ID NO: 54)) were purchased from Life Technologies/Ambion and Exiqon, respectively. siRNAs for PPARγ and OCT4/POU5F1 were purchased from Santa Cruz Biotechnology. siRNA for TIMP2 was purchased from Life Technologies. On Target Plus siRNAs for YAP1, TAZ (WWTR1), LRP8 and scrambled control were purchased from ThermoScientific/Dhermacon. PAAF, PF, PAEC and PASMC were plated in collagen-coated dish (50 ug/mL) and transfected 24 h later at 70-80% confluence using pre-miRNA (5 nM), tiny-LNA (20 nM) or siRNA (25 nM) and Lipofectamine 2000 reagent (Life Technologies), according to the manufacturers' instructions. 8 hours after transfection cells were trypsinized and re-plated in the different hydrogel/3D-matrix.
Primary human pulmonary arterial adventitial fibroblast cells (PAAFs) were purchased (ScienCell Research Laboratories) and grown in FGM cell culture media (Lonza). Experiments were performed at passages 3 to 6. Primary human pulmonary arterial endothelial cells (PAECs) were grown in EGM-2 cell culture media (Lonza), and experiments were performed at passages 3 to 6. Primary human pulmonary arterial smooth muscle cells (PASMCs) were cultured in SmGM-2 cell culture media (Lonza), and experiments were performed at passages 3 to 9. HEK293T cells (American Type Culture Collection) were cultivated in DMEM containing 10% fetal bovine serum (FBS). […]

tiny-LNA-130: fully LNA-modified tiny LNA oligonucleotide 5′-ATTGCACT-3′ (SEQ ID NO: 3) complementary to the seed region of the miR-130/301 family (all LNA, backbone and methylation of C not given here)
caspase 3/7 activity (PAECs [1]; 24 h serum deprivation): partially protected cells from caspase 3/7 induction | caspase 3/7 activity (PAECs [1]; serum-replete conditions): No significant modulation | number of cells (PAECs [2]; counted each day during 3 days): greater decrease in the number of cells compared with anti-miR-130a | BrdU incorporation (proliferation) (PAECs [2]; exponentially growing, BrdU pulse 1 h): greater decrease in proliferation compared with anti-miR-130a | PCNA expression (PAECs [2]; immunoblot 48 hours after transfection): more substantial decrease | collagen content of conditioned media (collagen secretion) (PAAFs): decreased | ApoE (PAAFs; immunoblot, tiny-LNA-130 in stiff conditions): increased | collagen transcripts, LOX and CTGF (PAAFs; mimic in soft matrix, tiny-LNA-130 in high ECM stiffness): decreased
